# Laboratory results published in US20110052676A1, “Composition For Delaying Cellular Senescence” (priority 2009, published 2011).
# Experiments:
# Assay type in all cases: cell-based, Human
# [1] = test system: p53; assay: H2O2 stress-induced premature senescence in epidermal keratinocytes, p53 expression (ELISA); settings: 1% treatment level, after 150 μM H2O2 for two hours, FIG. 3
# Description: (§1) Human epidermal keratinocytes were seeded into culture flasks and grown at 37±2° C. and 5±1% CO2 using serum free Epilife media supplemented as recommended by the manufacturer. When a sufficient number of cells had been grown they were transferred to 96-well plates and cultured for a minimum of 24 hours to allow the cells to adhere to the well plates. After the initial 24-hour incubation, the media was changed to remove any non-adherent cells and the remaining cells were cultured until confluent, with a media change every 48 to 72 hours as needed.
# (§2) Premature cellular senescence was induced by treating the keratinocytes with H2O2. For the H2O2 treatment, the cell culture media was replaced with phosphate buffered saline (PBS) supplemented with 150 μM of H2O2 . The cells were incubated in the H2O2 solution for two hours, after which they were washed once with PBS and then fresh media, either with or without test material, was applied to the cells. At these levels, the H2O2 treatment was not observed to have an impact on cell viability.
# (§3) Relative changes in the amount of ATM and p53 expression were determined in the keratinocytes using ELISA based methods. […] After a sufficient level of color development was achieved the plate was read at 460 nm using a plate reader.
# [2] = test system: dermal papillae cells; assay: UV stress-induced premature senescence in dermal papillae cells measured by SA-β-Gal staining; settings: 20 mJ/cm^2 UVB, 48 hours, FIG. 4
# Description: Human dermal papillae cells were seeded into 12 well plates in Dermal Papillae Growth Medium (DPGM) and grown at 37±2° C. and 5±1% CO2 until confluent with a media change every 48 to 72 hours as needed. Once the cells were confluent, the cell culture media was replaced with PBS and the cells were irradiated with 20 mJ/cm^2 UVB. After the UVB irradiation, the PBS was removed and replaced with cell culture media supplemented with the various test materials. Non-supplemented DPGM was used as the untreated control. One set of cells was not exposed to UVB and served as the non-UVB treated control. After the addition of the media, sets of cells were cultured for 48 hours. At the end of the incubation period the cells were obtained and assayed for changes in SA-β-Gal activity.
# In a second set of studies, dermal papillae cells were grown and plated as described above. […] This was done to determine the effects of the test materials alone on the markers measured in this study.
# After the 48 hour incubation, the cells were washed with PBS and then briefly fixed for 6-7 minutes in fixation buffer (2% formaldehyde and 0.2% glutaraldehyde in PBS). […] On the following day, the wells were examined microscopically and photographed so that the number of stained cells per field could be quantified. The number of positive staining cells in each field was counted. […]
# [3] = test system: intrinsically-aged dermal fibroblasts; assay: Delayed senescence in intrinsically-aged dermal fibroblasts measured by SA-β-Gal staining; settings: for expression of SA-β-Gal (number of stained cells) vs untreated cells: after 18 population doublings, FIG. 1
# Description: The peptide isolated from Example 2 was employed to examine the ability of the peptide to delay senescence in dermal fibroblasts aged through a series of population doublings.
# Human neonatal fibroblasts were obtained after primary culture (passage 1) and seeded into a set of T-75 flasks in 3 ml/flask of Fibroblast Growth Media (FGM) and grown at 37±2° C. and 5±1% CO2. The cells were expanded through 6 passages (one passage was defined as growing the cells until the flask was confluent and then splitting the cells 1:2, thus one passage was roughly equal to one population doubling). After the 6th passage, the fibroblasts were split into different treatment groups and treated with the various test materials through passage 18. At passage 18 a portion of the fibroblasts were used to assay changes in Senescence Associated-β-Galactosidase (SA-β-Gal), while the remaining fibroblasts were cultured for an additional week (approximately 2 additional passages) in the absence of test materials.
# Prior to staining, the fibroblasts were washed once with PBS and then fixed for approximately 6 minutes in fixing solution (2% formaldehyde and 0.2% glutaraldehyde in PBS). After fixing, the cells were washed three times with PBS, followed by the addition of the staining solution (150 mM NaCl, 2 mM MgCl2, 40 mM citric acid (pH 6.0), 12 mM NaPO3, 5 mM potassium ferrocyanide, 5 mM potassium ferricyanide, and […] X-gal). The cells were then incubated at 37° C. overnight in a non-CO2 incubator. On the following day the staining solution was removed and replaced with PBS. The cells were then photographed microscopically and the number of stained cells (SA-β-Gal positive) in each field was counted.
# [4] = test system: Ogg1; assay: Cellular expression of DNA repair enzyme Ogg1 in fibroblasts (microfiltration blot, immunodetection); settings: treatment level 0.1%, 24 hours, FIG. 5
# Description: Human fibroblasts were seeded into culture flasks and grown at 37±2° C. and 5±1% CO2 using FGM. When a sufficient number of cells had been grown they were transferred to 24-well plates and cultured for a minimum of 24 hours to allow the cells to adhere to the well plates. The cells were then grown until confluent, with a media change every 48 to 72 hours.
# The test materials were prepared in FGM. The media was then removed from the culture plates and replaced with 0.5 ml of media supplemented with test material, with each treatment being tested in triplicate. FGM alone served as the untreated control. After the application of the cell culture media, the plates were incubated for 24 hours at 37±2° C. and 5±1% CO2. At the end of the incubation period the culture media was removed and the cells were washed once with phosphate buffered saline. […] The protein concentration of the supernatant was determined using the BCA Protein Assay. […]
# After the final wash, the membrane was placed into a BioRad Molecular Imager FX and scanned using an excitation laser and emission filter combination appropriate for the fluorophore. Images produced by the scanner were then analyzed using ImageJ image analysis software.
# Fluorescence intensity measurements were expressed in Relative Fluorescence Units (RFU). Mean RFU values for each treatment were then calculated and treatments were compared using a one way ANOVA.
# [5] = test system: ATM; assay: H2O2 stress-induced premature senescence in epidermal keratinocytes, ATM expression (ELISA); settings: 1% treatment level, after 150 μM H2O2 for two hours, FIG. 2
# Description: as §1, §2, §3
structure (smiles),measurement,setting,value
"CN[C@@H](Cc1ccccc1)C(=O)N[C@H](C(=O)N[C@@H](C)C(=O)N1CCC[C@H]1C(=O)N[C@@H](Cc1ccccc1)C(=O)N1CCC[C@H]1C(=O)O)C(C)C [Hexapeptide, Phe-Val-Ala-Pro-Phe-Pro]",expression of p53 protein vs prematurely senescent untreated keratinocytes,[1],statistically delay senescence
same,SA-β-Gal expression (number of stained cells) after UV,[2]; 0.5% Hexapeptide,statistically significant decrease
same,SA-β-Gal expression (number of stained cells) after UV,[2]; 1.0% Hexapeptide,statistically significant decrease
same,expression of SA-β-Gal (number of stained cells) vs untreated cells,[3]; 0.5% Hexapeptide treatment,untreated cells was statistically higher than that seen at 0.5 or 1.0% Hexapeptide treatment
same,expression of SA-β-Gal (number of stained cells) vs untreated cells,[3]; 1.0% Hexapeptide treatment,untreated cells was statistically higher than that seen at 0.5 or 1.0% Hexapeptide treatment
same,expression of SA-β-Gal one week after removal of the Hexapeptide,[3]; 1% treatment,increase but not yet back to normal
same,expression of SA-β-Gal one week after removal of the Hexapeptide,[3]; all treatments except the 1% treatment,returns to normal
same,expression of Ogg1 (RFU) vs untreated control,[4],statistically increase expression of Ogg1
same,expression of ATM protein vs prematurely senescent untreated keratinocytes,[5],statistically delay senescence
